Measured values: patent US20040018500A1, “Methods and systems for analyzing complex biological systems” (priority 2001, published 2004)

Tested on: Saccharomyces cerevisiae wild type strain BY4743
Test: AF1 metabolite analysis (GC-MS, LC-MS) of yeast treated with antifungal drugs
Format: cell-based
Settings: for # Compounds perturbed: yeast, 2×MIC, two hours

With `C[C@@H]1[C@H](O)[C@@H](C)/C=C/C=C/C=C/C=C/C=C/C=C/C=C/[C@H](O[C@@H]2O[C@H](C)[C@@H](O)[C@H](N)[C@@H]2O)C[C@@H]2O[C@](O)(C[C@@H](O)C[C@@H](O)[C@H](O)CC[C@@H](O)C[C@@H](O)CC(=O)O[C@H]1C)C[C@H](O)[C@H]2C(=O)O` [Amphoteracin B] the “Fold Change of TMS mevalonic acid lactone” value (GC) was −0.9767, the “Fold Change of alanine” value (GC) was −0.7773 and the “Fold Change of asparagine” value (GC) was −1. The “Fold Change of aspartic acid” value (GC) was −0.9743, the “Fold Change of campesterol” value (GC) was 0 and the “Fold Change of desmosterol” value (GC) was 0. The “Fold Change of disaccaride1” value (GC) was −1, the “Fold Change of disaccaride2” value (GC) was −0.9977 and the “Fold Change of disaccaride3” value (GC) was −0.9977. For the same compound, the “Fold Change of ergosterol” value (GC) was 2.303, the “Fold Change of fucosterol” value (GC) was −0.6553 and the “Fold Change of glutamine” value (GC) was −0.9116. The “Fold Change of glycanopyrose” value (GC) was −0.958, the “Fold Change of glycerol” value (GC) was −0.815 and the “Fold Change of glycine” value (GC) was 0.8807. The “Fold Change of hexadecanoic acid” value (GC) was −0.2427, the “Fold Change of iso citric acid” value (GC) was −0.6183 and the “Fold Change of isoleucine” value (GC) was −0.9533. The “Fold Change of lanosterol” value (GC) was −1, the “Fold Change of leucine” value (GC) was −0.9443 and the “Fold Change of lysine” value (GC) was −0.3925. The “Fold Change of malic acid” value (GC) was −0.963, the “Fold Change of mevalonic acid lactone” value (GC) was −0.1276 and the “Fold Change of octadecanoic acid” value (GC) was 0.21. For the same compound, the “Fold Change of oleic acid” value (GC) was −0.4593, the “Fold Change of ornithine2” value (GC) was −1 and the “Fold Change of ornithine3” value (GC) was −0.9853. The “Fold Change of palmiteliadic acid” value (GC) was 0.515, the “Fold Change of phenylalanine” value (GC) was −0.9797 and the “Fold Change of phosphate” value (GC) was −0.007333. For the same compound, the “Fold Change of pyrimidine” value (GC) was −0.185, the “Fold Change of squalene” value (GC) was −0.5745 and the “Fold Change of tetradecanoic acid” value (GC) was 0.07967. For the same compound, the “Fold Change of threonine2” value (GC) was −0.8553, the “Fold Change of threonine3” value (GC) was −0.8933 and the “Fold Change of tms glutamine3” value (GC) was −0.8935. The “Fold Change of tms lysine4” value (GC) was −0.9783, the “Fold Change of tms tyrosine2” value (GC) was −0.3593 and the “Fold Change of tms tyrosine3” value (GC) was −0.9473. For the same compound, the “Fold Change of valine” value (GC) was −0.8673, the “Fold Change of abscisic acid” value (LC) was 0 and the “Fold Change of adenosine” value (LC) was 0. For the same compound, the “Fold Change of glutamine/lysine” value (LC) was 0.3981, the “Fold Change of guanosine” value (LC) was 0.7598 and the “Fold Change of riboflavin” value (LC) was 0. For the same compound, the “Fold Change of serine” value (LC) was 0.2011, the “Fold Change of tyrosine” value (LC) was 0.2347 and the “# Compounds perturbed” value (P < 0.05) was 16. The “# Compounds perturbed” value (P < 0.1) was 21, the “Fold Change of 2-ketobutyric acid” value (nLC) was −0.9992 and the “Fold Change of 2-ketoglutaric” value (nLC) was 8.791. For the same compound, the “Fold Change of 3-indolylacetonitri” value (nLC) was −0.9998, the “Fold Change of 4-methylcatechol” value (nLC) was 0 and the “Fold Change of 4aminobutyrate/dimg” value (nLC) was −0.1983. For the same compound, the “Fold Change of 5hydroxyLtryptophan” value (nLC) was 0, the “Fold Change of 6-benzylaminopurine” value (nLC) was 0 and the “Fold Change of DLaminoadipic acid” value (nLC) was 1.411. The “Fold Change of NacetylDglucosamine” value (nLC) was 0, the “Fold Change of NacetylLglutamate” value (nLC) was −0.1078 and the “Fold Change of NacetylLornithine” value (nLC) was 0. For the same compound, the “Fold Change of abscisic acid” value (nLC) was 0, the “Fold Change of aconitic acid” value (nLC) was 0.5426 and the “Fold Change of adenine” value (nLC) was 0. For the same compound, the “Fold Change of adenosine” value (nLC) was 0, the “Fold Change of alanine” value (nLC) was 0.1599 and the “Fold Change of allantoic acid” value (nLC) was −0.1456. For the same compound, the “Fold Change of allantoin” value (nLC) was 3.97, the “Fold Change of anthranilic acid” value (nLC) was 0 and the “Fold Change of arginine” value (nLC) was −0.4885. The “Fold Change of argininosuccinate” value (nLC) was 0, the “Fold Change of asparagine” value (nLC) was 0.1511 and the “Fold Change of aspartic” value (nLC) was 0.2407. The “Fold Change of benzoic acid” value (nLC) was 0, the “Fold Change of biotin” value (nLC) was 1.077 and the “Fold Change of caffeic acid” value (nLC) was −0.5882. The “Fold Change of catechol” value (nLC) was 0, the “Fold Change of cinnamic acid” value (nLC) was 0 and the “Fold Change of citricanoic/itaconi” value (nLC) was 0. For the same compound, the “Fold Change of citrulline” value (nLC) was 1659, the “Fold Change of coumaric acid” value (nLC) was 0 and the “Fold Change of cytidine” value (nLC) was −0.9986. The “Fold Change of cytosine” value (nLC) was 0, the “Fold Change of decanoic acid” value (nLC) was −0.08716 and the “Fold Change of diaminopimelic acid” value (nLC) was 0. The “Fold Change of dihydrofolic acid” value (nLC) was 0, the “Fold Change of estrone” value (nLC) was 0 and the “Fold Change of farnesol” value (nLC) was 0. The “Fold Change of folic acid” value (nLC) was 0, the “Fold Change of fumaric/3m2oxobutan” value (nLC) was 0.4423 and the “Fold Change of gallic acid” value (nLC) was 0.1622. The “Fold Change of gibberellic” value (nLC) was 0, the “Fold Change of giutamine/lysine” value (nLC) was 0.07919 and the “Fold Change of glucosamine6PO4” value (nLC) was −0.9951. For the same compound, the “Fold Change of glutamic/acetylseri” value (nLC) was 0.1414, the “Fold Change of guanine” value (nLC) was 0 and the “Fold Change of guanosine” value (nLC) was 1.131. The “Fold Change of histidine” value (nLC) was 0, the “Fold Change of homogentisic/uric” value (nLC) was 0 and the “Fold Change of hydrocortisone” value (nLC) was 0. For the same compound, the “Fold Change of hypoxanthine” value (nLC) was 0.1655, the “Fold Change of indole3pyruvic acid” value (nLC) was 0 and the “Fold Change of inostol/glucos/sorb” value (nLC) was −0.5905. The “Fold Change of isocitric/citric/qu” value (nLC) was 2.549, the “Fold Change of jasmonic acid” value (nLC) was 0 and the “Fold Change of kinetin” value (nLC) was 0. The “Fold Change of lactic acid” value (nLC) was −0.02583, the “Fold Change of lauric acid” value (nLC) was 0.1225 and the “Fold Change of leucine/isoleucine/” value (nLC) was 0.1319. For the same compound, the “Fold Change of luteolin” value (nLC) was 0, the “Fold Change of malic acid” value (nLC) was 0.6212 and the “Fold Change of malonic acid” value (nLC) was 0. The “Fold Change of menthol*” value (nLC) was −0.07013, the “Fold Change of methionine” value (nLC) was 0 and the “Fold Change of nopaline” value (nLC) was 0.3342. The “Fold Change of oleic acid” value (nLC) was 0.689, the “Fold Change of ornithine” value (nLC) was 2.534 and the “Fold Change of orotic acid” value (nLC) was 8380. For the same compound, the “Fold Change of palmitic acid” value (nLC) was 0.3979, the “Fold Change of phenylalanine” value (nLC) was −0.1906 and the “Fold Change of phenylpyruvic acid” value (nLC) was 0. The “Fold Change of phosphoenolpyruvate” value (nLC) was 0, the “Fold Change of pinitol” value (nLC) was 0 and the “Fold Change of pipecolic acid” value (nLC) was 0.08112. For the same compound, the “Fold Change of porphobilinogen” value (nLC) was 0, the “Fold Change of proline” value (nLC) was 0.4603 and the “Fold Change of pyridoxine” value (nLC) was −0.1294. The “Fold Change of retinoic acid” value (nLC) was 0, the “Fold Change of salicylic/HObenzoic” value (nLC) was 0 and the “Fold Change of selenoOLmethionine” value (nLC) was 0.8515. For the same compound, the “Fold Change of serine” value (nLC) was 0.1091, the “Fold Change of shikimic acid” value (nLC) was 0 and the “Fold Change of sinapinic acid” value (nLC) was 0. The “Fold Change of sorbitol/mannitol” value (nLC) was 0.2162, the “Fold Change of succinic” value (nLC) was 0.8663 and the “Fold Change of sucrose” value (nLC) was 0.4493. The “Fold Change of sugar-phosphate” value (nLC) was −0.1067, the “Fold Change of tetradecanoic acid” value (nLC) was −0.07723 and the “Fold Change of threonine/homoserin” value (nLC) was 0.1267. For the same compound, the “Fold Change of thymine” value (nLC) was 0, the “Fold Change of tryptophan” value (nLC) was 1.142 and the “Fold Change of tyrosine” value (nLC) was 0.0982. The “Fold Change of uracil” value (nLC) was 1.511, the “Fold Change of uridine” value (nLC) was 0.1126 and the “Fold Change of urocanic acid” value (nLC) was 0. For the same compound, the “Fold Change of valine” value (nLC) was 0.1624, the “Fold Change of xanthosineDiH2O” value (nLC) was 0 and the “Fold Change of zeatin” value (nLC) was 0. For the same compound, the “Fold Change of 4-aminobenzoic acid” value (pLC) was 0, the “Fold Change of 4-methylcatechol” value (pLC) was 0 and the “Fold Change of 4ambutyrate/dimglyc” value (pLC) was 0.01279. The “Fold Change of 5hydroxyLtryptophan” value (pLC) was 0, the “Fold Change of 6benzylaminopurine” value (pLC) was 0 and the “Fold Change of DL-aminoadipic acid” value (pLC) was 0.4703. For the same compound, the “Fold Change of NacetylDglucosamine” value (pLC) was 0, the “Fold Change of NacetylLglutamate” value (pLC) was 0 and the “Fold Change of NacetylLornithine” value (pLC) was 1.319. For the same compound, the “Fold Change of adenine” value (pLC) was 0.1153, the “Fold Change of alanine/sarcosine” value (pLC) was 0.2602 and the “Fold Change of allantoic acid” value (pLC) was 0. For the same compound, the “Fold Change of anthranilic acid” value (pLC) was 0, the “Fold Change of arginine” value (pLC) was 0.4662 and the “Fold Change of argininosuccinate” value (pLC) was 0. For the same compound, the “Fold Change of asparagine” value (pLC) was 0.6344, the “Fold Change of aspartic acid” value (pLC) was 0.3594 and the “Fold Change of biotin” value (pLC) was 0. The “Fold Change of caffeine” value (pLC) was 0, the “Fold Change of citric acid TME” value (pLC) was 0 and the “Fold Change of citrulline” value (pLC) was 1.798. For the same compound, the “Fold Change of cytidine” value (pLC) was 0, the “Fold Change of cytosine” value (pLC) was 0 and the “Fold Change of diaminopimelic acid” value (pLC) was 0. For the same compound, the “Fold Change of dihydrofolic acid” value (pLC) was 0, the “Fold Change of dipicolinic acid” value (pLC) was 0 and the “Fold Change of folic acid” value (pLC) was 0. For the same compound, the “Fold Change of glucosamine” value (pLC) was 0, the “Fold Change of glucosamine6PO4” value (pLC) was 0 and the “Fold Change of glutamate” value (pLC) was 0.4341. The “Fold Change of glutathione” value (pLC) was −0.03348, the “Fold Change of histidine” value (pLC) was 0 and the “Fold Change of hydrocortisone” value (pLC) was 0. The “Fold Change of hypoxanthine” value (pLC) was 0.2057, the “Fold Change of itaconic acid dimes” value (pLC) was 0 and the “Fold Change of kinetin” value (pLC) was 0. For the same compound, the “Fold Change of leucine/isoleucine/” value (pLC) was 0.2746, the “Fold Change of luteolin” value (pLC) was 0 and the “Fold Change of mannitol” value (pLC) was 0.4543. The “Fold Change of methionine” value (pLC) was 0.3299, the “Fold Change of mevalonic lactone” value (pLC) was −0.4606 and the “Fold Change of niacinamide” value (pLC) was 0. For the same compound, the “Fold Change of nicotinic acid” value (pLC) was −0.9989, the “Fold Change of nopaline” value (pLC) was 0 and the “Fold Change of ornithine” value (pLC) was 0.5049. The “Fold Change of phenylalanine” value (pLC) was 0.4036, the “Fold Change of phosphoenolpyruvate” value (pLC) was 0 and the “Fold Change of pipecolic acid” value (pLC) was 0.5237. For the same compound, the “Fold Change of progesterone” value (pLC) was 0, the “Fold Change of proline” value (pLC) was 0.6707 and the “Fold Change of pyridoxine” value (pLC) was −0.1684. For the same compound, the “Fold Change of selenoDLmethionine” value (pLC) was 1.178, the “Fold Change of sugar-phosphate” value (pLC) was 0 and the “Fold Change of thiamine” value (pLC) was 0. The “Fold Change of threonine/homoserin” value (pLC) was 0.3145, the “Fold Change of thymine” value (pLC) was 0 and the “Fold Change of tryptophan” value (pLC) was 0. For the same compound, the “Fold Change of uric acid” value (pLC) was 308, the “Fold Change of urocanic acid” value (pLC) was 0 and the “Fold Change of xanthosine(diH2O)” value (pLC) was 0. The “Fold Change of zeatin” value (pLC) was 0.
